Marks after values point to notes of the source that are not given here.
Tested on: chicken embryos
Assay: Metabolic profiling of blood plasma (GC-MS, LC-MS, OPLS-DA)
Type: in vivo, Gallus gallus domesticus
Details: for Mean concentration relative to control, feature Win006_C03 / Mean concentration relative to control, feature Win011_C02 (Isoleucine) / Mean concentration relative to control, feature Win027_C13 / Mean concentration relative to control, feature Win031_C03 (Citric acid) / Mean concentration relative to control, feature Win034_C08 (Tyrosine) / Mean concentration relative to control, feature Win034_C09 (Tyrosine) / Mean concentration relative to control, feature Win039_C07 / Mean concentration relative to control, feature Win043_C02 (Cystathionine) / Mean concentration relative to control, feature Win061_C01 / Mean concentration relative to control, feature Win066_C03 / Mean concentration relative to control, feature Win088_C02: GC
Procedure: Controls were injected with 20 μL vehicle only (DMSO).
Plasma was collected and stored at -70°C.
Metabolites in allantoic fluid and blood plasma were analyzed using gas chromatography-mass spectrometry (GC-MS) and liquid chromatography-mass spectrometry (LC-MS) as described in S1 Methods. Prior to GC-MS and LC-MS analysis, allantoic fluid (100 μL) and blood plasma (50 μL) were extracted. To each sample, 900 μL (allantoic fluid) or 450 μL (blood plasma) of extraction buffer (90/10 v/v methanol:water) including all internal standards were added. Standards for GC-MS were proline, succinic acid, glutamic acid, salicylic acid, alpha-ketoglutarate, putrescine, myristic acid, hexadecanoic acid, cholesterol, and sucrose. Standards for LC-MS were Val-Tyr-Val, Leu-enkephalin, sulfadimethoxine and reserpine. Samples were homogenized by shaking in a bead mill at a frequency of 30 Hz for 3 minutes and proteins were precipitated at +4°C on ice. The samples were centrifuged at +4°C, 14000 rpm, for 10 min. Then, 200 μL supernatant was transferred to a GC microvial and 200 μL was transferred to an LC microvial, and solvents were evaporated. Samples from the four replicate experiments were analyzed using in chronological order and within each replicate experiment the run order of the individual samples was randomized.
Multivariate statistical analyses of metabolite profiles were performed using the software package SIMCA-P version 13.0 (Umetrics, Umeå, Sweden). Data was centered and scaled to variance 1 (UV scaling) prior to modelling. To reduce unintended systematic variation caused by sample processing and instrument drift, GC-MS and LC-MS metabolite amounts (expressed as the area under the chromatographic peak) were normalized by Orthogonal Partial Least Squares analysis (O2PLS) prior to multivariate data analysis. O2PLS finds common (predictive) and unique (orthogonal) variation in two data matrices. If applied to find the common variation between the data matrix containing the measured metabolite concentrations and a matrix containing only the internal standards, the only common (predictive) variation expected is due to the unintended systematic variation. By deleting the contribution of the predictive latent variables, that variation can be removed from the data. Models obtained after this normalization contain in general less latent variables, and this simplification helps when deciding on the number of latent variables to be used. Following normalization, GC-MS and LC-MS data were analyzed together. Initially, a global Principal Component Analysis (PCA) was performed to get an overview of groups and trends and to identify outliers. Projections to latent structures by means of Orthogonal Partial Least Squares Discriminant Analysis (OPLS-DA) was used to model the relationship between the X-matrix (metabolite concentrations) and the Y matrix (class, i.e. exposure group or sex), and to find x-variables that were related to class belonging. OPLS-DA is a supervised prediction and regression method that rotates the projection plane to find the maximum covariance between the data and the class assignment. All groups were first analyzed together in a 5-class OPLS-DA and then each exposure group was analyzed against the control group in a 2-class OPLS-DA. Sex differences were analyzed both using the whole data set and in each group separately using 2-class OPLS-DA, with females and males as the two classes. Only variables with 80% or more nonzero values were included in the statistical models. […] The validity of each model was also checked using CV-ANOVA (ANOVA of the cross-validated residuals). A significance level of p < 0.05 was used. For each model, R ^2 X, R ^2 Y and Q ^2 values were calculated, where R ^2 X is a measure of the fraction of x variation modeled in the extracted latent variables, R ^2 Y is a measure of the fraction of y variation modeled and Q ^2 is an estimate of the predictive ability of the model and is calculated by cross-validation. […]

Q: What does the source list for `O=C(O)C(F)(F)C(F)(F)C(F)(F)C(F)(F)C(F)(F)C(F)(F)C(F)(F)F` [PFOA, perfluorooctanoic acid]?
A: Mean concentration relative to control, feature Win006_C03 (PFOA 50): 1.1*; Mean concentration relative to control, feature Win011_C02 (Isoleucine) (PFOA 50): 1.1; Mean concentration relative to control, feature Win027_C13 (PFOA 50): 0.9; Mean concentration relative to control, feature Win031_C03 (Citric acid) (PFOA 50): 1; Mean concentration relative to control, feature Win034_C08 (Tyrosine) (PFOA 50): 1.1; Mean concentration relative to control, feature Win034_C09 (Tyrosine) (PFOA 50): 1.1; Mean concentration relative to control, feature Win039_C07 (PFOA 50): 1.3; Mean concentration relative to control, feature Win043_C02 (Cystathionine) (PFOA 50): 1.1; Mean concentration relative to control, feature Win061_C01 (PFOA 50): 0.9; Mean concentration relative to control, feature Win066_C03 (PFOA 50): 1; Mean concentration relative to control, feature Win088_C02 (PFOA 50): 1; Mean concentration relative to control, feature Win006_C03 (PFOA 250): 1.1*; Mean concentration relative to control, feature Win011_C02 (Isoleucine) (PFOA 250): 1.1*; Mean concentration relative to control, feature Win027_C13 (PFOA 250): 0.8*; Mean concentration relative to control, feature Win031_C03 (Citric acid) (PFOA 250): 1; Mean concentration relative to control, feature Win034_C08 (Tyrosine) (PFOA 250): 1; Mean concentration relative to control, feature Win034_C09 (Tyrosine) (PFOA 250): 1.0; Mean concentration relative to control, feature Win039_C07 (PFOA 250): 1.3; Mean concentration relative to control, feature Win043_C02 (Cystathionine) (PFOA 250): 1.1; Mean concentration relative to control, feature Win061_C01 (PFOA 250): 0.9; Mean concentration relative to control, feature Win066_C03 (PFOA 250): 1; Mean concentration relative to control, feature Win088_C02 (PFOA 250): 1; Mean concentration relative to control, feature 118.0284@2.480333 (C4H6O4) (LC, PFOA 50): 1; Mean concentration relative to control, feature 122.0486@0.675613 (LC, PFOA 50): 1.1; Mean concentration relative to control, feature 126.0428@1.2278157 (Thymine) (LC, PFOA 50): 1.1; Mean concentration relative to control, feature 146.0362@0.7772238 (LC, PFOA 50): 1.1; Mean concentration relative to control, feature 159.0686@1.1608156 (LC, PFOA 50): 1; Mean concentration relative to control, feature 164.0449@0.7694838 (LC, PFOA 50): 1.1; Mean concentration relative to control, feature 202.1024@5.0303197 (C8H14N2O4) (LC, PFOA 50): 1.1; Mean concentration relative to control, feature 203.1162@0.5130696 (LC, PFOA 50): 1.1; Mean concentration relative to control, feature 213.2458@7.4887733 (LC, PFOA 50): 1; Mean concentration relative to control, feature 215.047@1.6260729 (C5H14NO6P) (LC, PFOA 50): 1.0; Mean concentration relative to control, feature 226.0721@1.9460537 (LC, PFOA 50): 1; Mean concentration relative to control, feature 231.0174@1.6241412 (LC, PFOA 50): 1; Mean concentration relative to control, feature 233.1265@2.535991 (LC, PFOA 50): 1.1; Mean concentration relative to control, feature 250.1317@2.1334834 (LC, PFOA 50): 1.1; Mean concentration relative to control, feature 260.0508@0.69984084 (LC, PFOA 50): 0.6**; Mean concentration relative to control, feature 276.0173@1.6283482 (LC, PFOA 50): 1; Mean concentration relative to control, feature 278.0939@1.3354088 (LC, PFOA 50): 1; Mean concentration relative to control, feature 293.0903@1.5739433 (LC, PFOA 50): 1; Mean concentration relative to control, feature 307.2147@7.5065937 (C18H29NO3) (LC, PFOA 50): 1.3**; Mean concentration relative to control, feature 310.178@7.5343466 (LC, PFOA 50): 1; Mean concentration relative to control, feature 339.3861@9.528681 (LC, PFOA 50): 1.4*; Mean concentration relative to control, feature 342.2883@7.526812 (LC, PFOA 50): 0.9**; Mean concentration relative to control, feature 348.0675@1.5761927 (LC, PFOA 50): 1; Mean concentration relative to control, feature 355.9454@0.68034226 (LC, PFOA 50): 1; Mean concentration relative to control, feature 362.1467@0.8461036 (LC, PFOA 50): 1.1; Mean concentration relative to control, feature 366.1431@1.4228548 (LC, PFOA 50): 1; Mean concentration relative to control, feature 373.296@9.044806 (LC, PFOA 50): 1; Mean concentration relative to control, feature 375.3108@8.995564 (LC, PFOA 50): 1; Mean concentration relative to control, feature 389.2686@9.046645 (LC, PFOA 50): 1; Mean concentration relative to control, feature 407.0999@1.585909 (LC, PFOA 50): 1; Mean concentration relative to control, feature 412.135@2.4779084 (C17H24N4O6S) (LC, PFOA 50): 1; Mean concentration relative to control, feature 444.3607@10.33052 (LC, PFOA 50): 0.9; Mean concentration relative to control, feature 471.9819@0.685074 (LC, PFOA 50): 1; Mean concentration relative to control, feature 489.1508@8.562614 (LC, PFOA 50): 0.8*; Mean concentration relative to control, feature 509.1184@2.4798179 (LC, PFOA 50): 1; Mean concentration relative to control, feature 525.2855@8.361063 (LC, PFOA 50): 1.1; Mean concentration relative to control, feature 545.2492@8.463657 (LC, PFOA 50): 1.1; Mean concentration relative to control, feature 558.4095@9.459733 (LC, PFOA 50): 1.2; Mean concentration relative to control, feature 565.1902@0.7699907 (LC, PFOA 50): 1.1; Mean concentration relative to control, feature 577.2747@9.25652 (LC, PFOA 50): 1; Mean concentration relative to control, feature 581.1643@0.77029324 (LC, PFOA 50): 1.1; Mean concentration relative to control, feature 634.2403@1.9467853 (LC, PFOA 50): 1; Mean concentration relative to control, feature 644.1614@0.7647065 (LC, PFOA 50): 1.1

Reference: PMC4666608, “Metabolic Profiling of Chicken Embryos Exposed to Perfluorooctanoic Acid (PFOA) and Agonists to Peroxisome Proliferator-Activated Receptors” (PLoS ONE, 2015)
